The values below come from ChEMBL document CHEMBL1777786, “Synthesis of cholestane saponins as mimics of OSW-1 and their cytotoxic activities” (Bioorg Med Chem Lett, 2011).

What all share (assay type): functional, cell-based
For experiment [1], the system named is A549. The experiment in a line: Cytotoxicity against human A549 cells after 72 hrs by MTT assay. The settings on record: A549, 72 h.
Experiment [2] deals with HCT-8. Kind of experiment: Cytotoxicity against human HCT8 cells after 72 hrs by MTT assay. The settings on record: HCT-8, 72 h.
In experiment [3] the test system is Bel-7402. The experiment in a line: Cytotoxicity against human Bel7402 cells after 72 hrs by MTT assay. To be noted: Bel-7402, 72 h.
Experiment [4] has as its system BGC-823. The experiment in a line: Cytotoxicity against human BGC823 cells after 72 hrs by MTT assay. The settings on record: BGC-823, 72 h.
In experiment [5] the test system is A2780. The experiment in a line: Cytotoxicity against human A2780 cells after 72 hrs by MTT assay. To be noted: A2780, 72 h.

The structures appear in SMILES notation. Where only a bound is given, the exact number is not on record here.

As for `COc1ccc(C(=O)O[C@H]2[C@H](O[C@H]3CO[C@@H](O[C@H]4C=C5C[C@@H](O)CC[C@]5(C)[C@H]5CC[C@]6(C)[C@@H]([C@H](C)CCC[C@@H](C)CO)CC[C@H]6[C@H]45)[C@H](OC(C)=O)[C@H]3O)OC[C@@H](O)[C@@H]2O)cc1`, the IC50 in experiment [1], in experiment [2], in experiment [3], in experiment [4] and in experiment [5] was over 10000 nM each time.
Regarding `COc1ccc(C(=O)O[C@H]2[C@H](O[C@@H]3[C@@H](OC(C)=O)[C@H](O[C@H]4C=C5C[C@@H](O)CC[C@]5(C)[C@H]5CC[C@]6(C)[C@@H]([C@H](C)CCC[C@@H](C)CO)CC[C@H]6[C@H]45)OC[C@@H]3O)OC[C@@H](O)[C@@H]2O)cc1`, the IC50 in experiment [1], in experiment [2], in experiment [3], in experiment [4] and in experiment [5] was over 10000 nM in each case.
In the case of `COc1ccc(C(=O)O[C@H]2[C@H](O[C@H]3CO[C@@H](O[C@H]4C[C@H]5[C@@H]6CC=C7C[C@@H](O)CC[C@]7(C)[C@H]6CC[C@]5(C)[C@H]4[C@H](C)CCC[C@@H](C)CO)[C@H](OC(C)=O)[C@H]3O)OC[C@@H](O)[C@@H]2O)cc1`, the IC50 in experiment [1], in experiment [2], in experiment [3], in experiment [4] and in experiment [5] was over 10000 nM each time.
As to `COc1ccc(C(=O)O[C@H]2[C@H](O[C@@H]3[C@@H](OC(C)=O)[C@H](O[C@H]4C[C@H]5[C@@H]6CC=C7C[C@@H](O)CC[C@]7(C)[C@H]6CC[C@]5(C)[C@H]4[C@H](C)CCC[C@@H](C)CO)OC[C@@H]3O)OC[C@@H](O)[C@@H]2O)cc1`, the IC50 in experiment [1] is 9.3 nM; in experiment [2] it was 70 nM; in experiment [3], 23 nM; in experiment [4], 2 nM; in experiment [5] it was 6 nM.
In the case of `COc1ccc(C(=O)O[C@H]2[C@H](O[C@H]3CO[C@@H](O[C@H]4C=C5C[C@@H](O)CC[C@]5(C)[C@H]5CC[C@]6(C)[C@@H]([C@H](C)CCC[C@@H](C)CO)[C@@H](O)C[C@H]6[C@H]45)[C@H](OC(C)=O)[C@H]3O)OC[C@@H](O)[C@@H]2O)cc1`, the IC50 in experiment [1], in experiment [2], in experiment [3], in experiment [4] and in experiment [5] was over 10000 nM throughout.
As to `COc1ccc(C(=O)O[C@H]2[C@H](O[C@@H]3[C@@H](OC(C)=O)[C@H](O[C@H]4C=C5C[C@@H](O)CC[C@]5(C)[C@H]5CC[C@]6(C)[C@@H]([C@H](C)CCC[C@@H](C)CO)[C@@H](O)C[C@H]6[C@H]45)OC[C@@H]3O)OC[C@@H](O)[C@@H]2O)cc1`, the IC50 in experiment [1] is 87 nM; in experiment [2], 75 nM; in experiment [3] it was 50 nM; in experiment [4], 78 nM; in experiment [5], 1900 nM.
For `CC(=O)O[C@H]1C(=O)[C@@]2(C)[C@H]([C@H](OC(=O)c3ccccc3)[C@]3(O)C[C@H](OC(=O)[C@H](O)[C@@H](NC(=O)c4ccccc4)c4ccccc4)C(C)=C1C3(C)C)[C@]1(OC(C)=O)CO[C@@H]1C[C@@H]2O` [PACLITAXEL], the IC50 in experiment [3] was 6 nM; in experiment [4], under 1 nM; in experiment [5], under 1 nM.
